This test concerns the target T1, X-box-binding protein 1 (Rattus norvegicus, UniProt Q9R1S4).
T1 sequence (Q9R1S4 whole entry): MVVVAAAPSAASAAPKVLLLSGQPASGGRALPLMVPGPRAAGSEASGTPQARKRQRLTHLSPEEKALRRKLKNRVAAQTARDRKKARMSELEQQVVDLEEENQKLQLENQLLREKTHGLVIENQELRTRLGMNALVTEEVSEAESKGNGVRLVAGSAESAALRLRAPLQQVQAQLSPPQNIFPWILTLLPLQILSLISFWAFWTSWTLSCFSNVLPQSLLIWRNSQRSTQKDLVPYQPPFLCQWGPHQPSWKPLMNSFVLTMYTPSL
Kind of test: ChEBML_1526682. The source says: Transactivation of XBP1 in rat IEC-6 cells after 48 hrs by dual luciferase reporter gene assay

For orientation: EC50 means the concentration giving half of the maximal effect. In the case of `C/C1=C/C[C@@H](O)[C@@]2(C)CC[C@@](C(C)C)(C[C@@H](O)[C@]3(C)CC[C@H]1O3)O2`, the response was half-maximal at 340 nM (EC50).

With `CC(C)[C@@]12CC[C@@](C)(O1)[C@H](O)CC/C(C=O)=C/CC[C@@]1(C)O[C@@H]1C2`, the response was half-maximal at 1140 nM (EC50). The result for `C/C1=C\[C@@H](O)C[C@@]2(C)O[C@@H]2C[C@]2(C(C)C)CC[C@@](C)(O2)[C@H](O)CC1=O` reads 880 nM; that for `C/C1=C\CC[C@@]2(C)O[C@@H]2C[C@]2(C(C)C)CC[C@@](C)(O2)[C@H](O)CC1=O`, 420 nM.

Values taken from BindingDB's records for doi:10.1021/acs.jnatprod.5b00104 (Peking Union Medical College, 2015).
